According to patent publication US20110212106A1, “HIV-1 NE[…] USES THEREOF” (priority 2010, published 2011):
“And” between values parts separate entries of the source, which are not always exact repeats. Equal values may be shown once. Read-outs that look alike come from different tables or passages of the source.

Key:
[1] = tested on: HIV-1 pseudoviruses in TZM-bl cells; conditions: for IC50: Table 7, TZMbl
gp120 binding to sCD4 = conditions: inhibition of sCD4 binding
Procedure: Shown is mean±SD of triplicates.
The ability of mAbs to inhibit binding of sCD4 to gp120 or gp140 was evaluated by ELISA. Serial dilutions of mAbs were pre-incubated with gp120 (or gp140) and added to plates pre-coated with sCD4. After 1 h plates were washed and incubated with sheep polyclonal antibody D7324 (Aalto Bio-Reagents) followed by washing, incubation with AP-conjugated rabbit anti-sheep IgG antibody (Abcam, Cambridge, UK), extensive washing and detection using p-NPP (Sigma) as substrate.

[2] = tested on: HIV-1 pseudoviruses in HOS-CD4-CCR5 cells; conditions: for IC50: Table 7, HOS
Procedure: To measure the neutralization activity of the isolated mAbs, luciferase-encoding virions pseudotyped with the desired HIV-1 Env proteins were used in a single-cycle infectivity assay, as previously described (Gorny M K, et al. (2002) J Virol 76: 9035-9045). Briefly, appropriate dilutions of the virion-containing culture supernatants were pre-incubated at 37° C. for 1 h with mAbs at various concentrations. The virus-mAb mixtures were added to HOS-CD4-CCR5 cells and incubated for 3 days at 37° C. A similar protocol was used for supernatants screening using TZM-bl cells (Li M, et al. (2006) J Virol 80: 11776-11790). The cells were then lysed with Britelite reagent (Perkin-Elmer) and the relative light units in the cell lysates were determined on a luminometer microplate reader (Veritas, Turner Biosystems). The 50% inhibitory dose (IC50) was defined as the sample concentration at which relative luminescence units were reduced 50% compared to virus control wells.
The neutralizing activity of the mAbs was measured using 20 pseudotyped HIV-1 primary isolate envs characterized by different sensitivity to neutralization (Li M, et al. (2005) J Virol 79: 10108-10125; Li M, et al. (2006) J Virol 80: 11776-11790). The mAbs were tested at a fixed concentration (100 μg/ml) in the luciferase based neutralization assay using HOS-CD4.R5 as target cells.

[3] = tested on: primary replication competent HIV-1 isolates

Substance: HJ16: human mAb from clade C donor, CD4 binding site proximal epitope; VH SEQ ID NO: 13, VL SEQ ID NO: 14
- Percentage of HIV-1 isolates neutralized ([1]; All (92)): 36%
- Neutralization TZM-bl (number of isolates neutralized) ([1]; TZM-bl based assay, isolates neutralized/isolates tested): 33/92
- Percentage of HIV-1 isolates neutralized ([1]; Tier 1 (10)): 10%
- Percentage of HIV-1 isolates neutralized ([1]; Tier 1 + Tier 2, Clade A (8)): 25%
- Percentage of HIV-1 isolates neutralized ([1]; Tier 1 + Tier 2, Clade AD (1)): 100%
- Percentage of HIV-1 isolates neutralized ([1]; Tier 1 + Tier 2, Clade AG (16)): 50%
- Percentage of HIV-1 isolates neutralized ([1]; Tier 1 + Tier 2, Clade B (29)): 34%
- Percentage of HIV-1 isolates neutralized ([1]; Tier 1 + Tier 2, Clade BC (11)): 45%
- Percentage of HIV-1 isolates neutralized ([1]; Tier 1 + Tier 2, Clade C (26)): 27%
- Percentage of HIV-1 isolates neutralized ([1]; Tier 1 + Tier 2, Clade G (1)): 0%
- Percentage of HIV-1 isolates neutralized ([1]; Tier 2 (82)): 39%
- Percentage of HIV-1 isolates neutralized ([1]; Tier 2, Clade A (5)): 20%
- Percentage of HIV-1 isolates neutralized ([1]; Tier 2, Clade AD (1)): 100%
- Percentage of HIV-1 isolates neutralized ([1]; Tier 2, Clade AG (16)): 50%
- Percentage of HIV-1 isolates neutralized ([1]; Tier 2, Clade B (24)): 42%
- Percentage of HIV-1 isolates neutralized ([1]; Tier 2, Clade BC (11)): 45%
- Percentage of HIV-1 isolates neutralized ([1]; Tier 2, Clade C (24)): 29%
- Percentage of HIV-1 isolates neutralized ([1]; Tier 2, Clade G (1)): 0%
- Tier-2 isolates neutralized by HJ16 that were not neutralized by b12 ([1]; of 32 neutralized): 22/32
- Tier-1 viruses neutralized ([1]; panel of 10 Tier-1 isolates): 1 out of 10 and 1/10
- Tier-2 pseudoviruses neutralized ([1]; panel of 82 Tier-2 isolates): 32/82
- Cross-competition with: sCD4 (gp120 binding to sCD4): + (+,90-100% inhibition)
- Neutralization HOS (number of isolates neutralized) ([2]; HOS-based assay, isolates neutralized/isolates tested): 10/20
- pseudoviruses neutralized out of the 20 pseudoviruses ([2]; mAb at fixed concentration 100 μg/ml): 10
- plateau of heterologous inhibition in cross-competition of HJ16 and b12 (gp120; binding to immobilized gp120): approximately 80%
- Cross-competition with: 2G12 (gp120; inhibition of biotinylated mAb 2G12 binding to immobilized gp120): − (−, <50% inhibition)
- Cross-competition with: HGA9 (gp120; inhibition of biotinylated mAb HGA9 binding to immobilized gp120): − (−, <50% inhibition)
- Cross-competition with: HJ16 (gp120; inhibition of biotinylated mAb HJ16 binding to immobilized gp120): + (+,90-100% inhibition)

Substance: enfuvirtide
- IC50 ([1]; 96ZM651.2, clade C): 8.9 nM
- IC50 ([1]; 263-8, clade AG): < 2.23 nM
- IC50 ([1]; AC10.0.29, clade B): 6.68 nM
- IC50 ([1]; BaL.26, clade B): 6.68 nM
- IC50 ([1]; CAP210.2.00.E8, clade C): 13.4 nM
- IC50 ([1]; CH064.20, clade BC): < 2.23 nM
- IC50 ([1]; CH110.2, clade BC): < 2.23 nM
- IC50 ([1]; CH181.12, clade BC): < 2.23 nM
- IC50 ([1]; Du151.2, clade C): < 2.23 nM
- IC50 ([1]; Q168.a2, clade AD): 8.9 nM
- IC50 ([1]; Q461.e2, clade A): 6.68 nM
- IC50 ([1]; Q769.d22, clade A): 20 nM
- IC50 ([1]; RHPA4259.7, clade B): 8.9 nM
- IC50 ([1]; SF162, clade B): 20 nM
- IC50 ([1]; SS1196.1, clade B): 4.45 nM
- IC50 ([1]; T257-31, clade AG): < 2.23 nM
- IC50 ([1]; ZM53M.PB12, clade C): < 2.23 nM
- IC50 ([1]; ZM214M.PL15, clade C): 17.8 nM
- IC50 ([3]; 92BR025, clade C): < 16 nM
- IC90 ([3]; 92BR025, clade C): 29 nM
- IC50 ([3]; 92RW009, clade A): < 16 nM
- IC90 ([3]; 92RW009, clade A): 44 nM
- IC50 ([3]; 92UG024, clade D): 16 nM
- IC90 ([3]; 92UG024, clade D): 48 nM
- IC50 ([3]; J213, clade B): 35 nM
- IC90 ([3]; J213, clade B): 192 nM
- IC50 ([3]; MN(P), clade B): 39 nM
- IC90 ([3]; MN(P), clade B): 63 nM
- IC50 ([3]; QH0692, clade B): 78 nM
- IC90 ([3]; QH0692, clade B): 207 nM
- IC50 ([3]; VI 191, clade A): 32 nM
- IC90 ([3]; VI 191, clade A): 56 nM
- IC50 ([2]; 96ZM651.2, clade C): 0.6 nM
- IC50 ([2]; 263-8, clade AG): 0.04 nM
- IC50 ([2]; AC10.0.29, clade B): 1.2 nM
- IC50 ([2]; BaL.26, clade B): 1.4 nM
- IC50 ([2]; CAP210.2.00.E8, clade C): 6 nM
- IC50 ([2]; CH064.20, clade BC): 0.7 nM
- IC50 ([2]; CH110.2, clade BC): 0.335 nM
- IC50 ([2]; CH181.12, clade BC): 1.8 nM
- IC50 ([2]; Du151.2, clade C): 0.6 nM
- IC50 ([2]; JR-FL, clade B): 1.9 nM
- IC50 ([2]; MW965.26, clade C): 0.6 nM
- IC50 ([2]; Q168.a2, clade AD): 5.7 nM
- IC50 ([2]; Q461.e2, clade A): 1.6 nM
- IC50 ([2]; Q769.d22, clade A): 1.7 nM
- IC50 ([2]; RHPA4259.7, clade B): 1.9 nM
- IC50 ([2]; SF162, clade B): 6.8 nM
- IC50 ([2]; SS1196.1, clade B): 0.9 nM
- IC50 ([2]; T257-31, clade AG): 2.76 nM
- IC50 ([2]; ZM53M.PB12, clade C): 6.1 nM
- IC50 ([2]; ZM214M.PL15, clade C): 4.42 nM
